Source: patent publication US20150105252A1, “SUBSTITUTED PYRAZOLES AS HERBICIDES” (E I DU PONT DE NEMOURS AND COMPANY, priority 2013, published 2015)

Tests used:
chickweed = test: Test C postemergence; assay type: in vivo, Stellaria media; conditions: for Plant response rating (scale of 0 to 100 where 0 is no effect and 100 is complete control), Chickweed: Postemergence, 31 g ai/ha, visually evaluated after 13 to 15 days; for Chickweed plant response rating / Plant response rating, Chickweed: postemergence; for Chickweed plant response rating: 62 g ai/ha, scale 0 to 100
Procedure, shortened: (§1)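 Visual control ratings on a 0–100 scale (100 = complete control) made against untreated controls after 13 to 15 days in greenhouse. Compounds applied in surfactant-containing solvent mixture, either preemergence to loam/sand-sown seeds or postemergence to 1- to 4-leaf plants (2–18 cm) in peat medium.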

blackgrass = test: Test C postemergence; assay type: in vivo, Alopecurus myosuroides; conditions: for Plant response rating (scale of 0 to 100 where 0 is no effect and 100 is complete control), Blackgrass: Postemergence, 31 g ai/ha, visually evaluated after 13 to 15 days; for Blackgrass plant response rating / Plant response rating, Blackgrass: postemergence; for Blackgrass plant response rating: 62 g ai/ha, scale 0 to 100
Procedure, shortened: as §1

galium = test: Test C postemergence; assay type: in vivo, Galium aparine; conditions: for Plant response rating (scale of 0 to 100 where 0 is no effect and 100 is complete control), Galium: Postemergence, 31 g ai/ha, visually evaluated after 13 to 15 days; for Galium plant response rating / Plant response rating, Galium: postemergence; for Galium plant response rating: 62 g ai/ha, scale 0 to 100
Procedure, shortened: as §1

wheat = test: Test C postemergence; assay type: in vivo, Triticum aestivum
Procedure, shortened: as §1

lambsquarters = test: Test C preemergence; assay type: in vivo, Chenopodium album; conditions: for Lambsquarters plant response rating / Plant response rating, Lambsquarters: preemergence; for Plant response rating, Lambsquarters: 125 g ai/ha, scale 0 to 100, 0 = no effect, 100 = complete control
Procedure, shortened: as §1

crabgrass, large = test: Test C postemergence; assay type: in vivo, Digitaria sanguinalis; conditions: for Plant response rating (scale of 0 to 100 where 0 is no effect and 100 is complete control), Crabgrass, Large: Postemergence, 31 g ai/ha, visually evaluated after 13 to 15 days; for Crabgrass, Large plant response rating / Plant response rating, Crabgrass, Large: postemergence; for Crabgrass, Large plant response rating: 62 g ai/ha, scale 0 to 100
Procedure, shortened: as §1

corn = test: Test C postemergence; assay type: in vivo, Zea mays; conditions: for Plant response rating (scale of 0 to 100 where 0 is no effect and 100 is complete control), Corn: Postemergence, 31 g ai/ha, visually evaluated after 13 to 15 days; for Corn plant response rating / Plant response rating, Corn: postemergence; for Corn plant response rating: 62 g ai/ha, scale 0 to 100
Procedure, shortened: as §1

waterhemp = test: Test C postemergence; assay type: in vivo, Amaranthus rudis
Procedure, shortened: as §1

ryegrass, Italian = test: Test C postemergence; assay type: in vivo, Lolium multiflorum
Procedure, shortened: as §1

ragweed = test: Test C postemergence; assay type: in vivo, Ambrosia elation
Procedure, shortened: as §1

soybean = test: Test C postemergence; assay type: in vivo, Glycine max; conditions: for Plant response rating, Soybean / Soybean plant response rating: postemergence
Procedure, shortened: as §1

barnyardgrass = test: Test C postemergence; assay type: in vivo, Echinochloa crus-galli; conditions: for Plant response rating (scale of 0 to 100 where 0 is no effect and 100 is complete control), Barnyardgrass: Postemergence, 31 g ai/ha, visually evaluated after 13 to 15 days; for Barnyardgrass plant response rating / Plant response rating, Barnyardgrass: postemergence; for Barnyardgrass plant response rating: 62 g ai/ha, scale 0 to 100
Procedure, shortened: as §1

morningglory = test: Test C postemergence; assay type: in vivo, Ipomoea coccinea; conditions: for Plant response rating (scale of 0 to 100 where 0 is no effect and 100 is complete control), Morningglory: Postemergence, 31 g ai/ha, visually evaluated after 13 to 15 days; for Morningglory plant response rating / Plant response rating, Morningglory: postemergence; for Morningglory plant response rating: 62 g ai/ha, scale 0 to 100
Procedure, shortened: as §1

foxtail, giant = test: Test C postemergence; assay type: in vivo, Setaria faberii; conditions: for Plant response rating (scale of 0 to 100 where 0 is no effect and 100 is complete control), Foxtail, Giant: Postemergence, 31 g ai/ha, visually evaluated after 13 to 15 days; for Foxtail, Giant plant response rating / Plant response rating, Foxtail, Giant: postemergence; for Foxtail, Giant plant response rating: 62 g ai/ha, scale 0 to 100
Procedure, shortened: as §1

[1] = 250 g ai/ha, scale 0 to 100 (0 no effect, 100 complete control)
[2] = 125 g ai/ha, scale 0 to 100, 0 no effect, 100 complete control
[3] = postemergence, 250 g ai/ha, scale 0 to 100 (0 no effect, 100 complete control)
[4] = 31 g ai/ha, visual rating, scale 0 to 100 (0 no effect, 100 complete control), 13 to 15 days
[5] = 62 g ai/ha, scale 0 to 100 (0 no effect, 100 complete control), 13 to 15 days
[6] = postemergence, 125 g ai/ha, scale 0 to 100, 0 no effect, 100 complete control
[7] = Postemergence, 31 g ai/ha, visually evaluated after 13 to 15 days
[8] = postemergence, 62 g ai/ha, scale 0 to 100

## CCc1cc(C(=O)NCC2CC2)nn1Cc1ccnc(C(F)(F)F)c1 [Compound 199]
chickweed
  Plant response rating (scale of 0 to 100 where 0 is no effect and 100 is complete control), Chickweed: 70
  Chickweed plant response rating: 60
chickweed; [1]
  Plant response rating, Chickweed: 80
chickweed; [2]
  Plant response rating, Chickweed: 80
blackgrass
  Plant response rating (scale of 0 to 100 where 0 is no effect and 100 is complete control), Blackgrass: 0
  Blackgrass plant response rating: 10
blackgrass; [1]
  Plant response rating, Blackgrass: 30
blackgrass; [2]
  Plant response rating, Blackgrass: 10
galium
  Plant response rating (scale of 0 to 100 where 0 is no effect and 100 is complete control), Galium: 60
  Galium plant response rating: 70
galium; [1]
  Plant response rating, Galium: 90
galium; [2]
  Plant response rating, Galium: 80
wheat; [3]
  Plant response rating, Wheat: 5
lambsquarters; [4]
  Lambsquarters plant response rating: 95
lambsquarters; [5]
  Lambsquarters plant response rating: 100
lambsquarters; 13 to 15 days
  Plant response rating, Lambsquarters: 100
lambsquarters; 250 g ai/ha, scale 0 to 100, 0 is no effect, 100 is complete control
  Lambsquarters plant response rating: 98
crabgrass, large
  Plant response rating (scale of 0 to 100 where 0 is no effect and 100 is complete control), Crabgrass, Large: 10
  Crabgrass, Large plant response rating: 10
crabgrass, large; [1]
  Plant response rating, Crabgrass, Large: 60
crabgrass, large; [2]
  Plant response rating, Crabgrass, Large: 40
corn
  Plant response rating (scale of 0 to 100 where 0 is no effect and 100 is complete control), Corn: 5
  Corn plant response rating: 10
corn; [1]
  Plant response rating, Corn: 65
corn; [2]
  Plant response rating, Corn: 85
waterhemp; [3]
  Plant response rating, Waterhemp: 75
ryegrass, Italian; [3]
  Plant response rating, Ryegrass, Italian: 10
ryegrass, Italian; [6]
  Plant response rating, Ryegrass, Italian: 10
ragweed; [3]
  Plant response rating, Ragweed: 75
ragweed; [6]
  Plant response rating, Ragweed: 20
soybean; [1]
  Plant response rating, Soybean: 95
soybean; [2]
  Soybean plant response rating: 75
barnyardgrass
  Plant response rating (scale of 0 to 100 where 0 is no effect and 100 is complete control), Barnyardgrass: 10
  Barnyardgrass plant response rating: 10
barnyardgrass; [1]
  Plant response rating, Barnyardgrass: 45
barnyardgrass; [2]
  Plant response rating, Barnyardgrass: 30
morningglory
  Plant response rating (scale of 0 to 100 where 0 is no effect and 100 is complete control), Morningglory: 30
  Morningglory plant response rating: 50
morningglory; [1]
  Plant response rating, Morningglory: 85
morningglory; [2]
  Plant response rating, Morningglory: 60
foxtail, giant
  Plant response rating (scale of 0 to 100 where 0 is no effect and 100 is complete control), Foxtail, Giant: 10
  Foxtail, Giant plant response rating: 10
foxtail, giant; [1]
  Plant response rating, Foxtail, Giant: 50
foxtail, giant; [2]
  Plant response rating, Foxtail, Giant: 50

## CCOc1cc(C(=O)NC2CC2)nn1Cc1ccnc(OC(F)F)c1 [Compound 133]
chickweed
  Plant response rating (scale of 0 to 100 where 0 is no effect and 100 is complete control), Chickweed: 50
  Chickweed plant response rating: 60
chickweed; [1]
  Plant response rating, Chickweed: 85
chickweed; [2]
  Plant response rating, Chickweed: 70
blackgrass
  Plant response rating (scale of 0 to 100 where 0 is no effect and 100 is complete control), Blackgrass: 5
  Blackgrass plant response rating: 5
blackgrass; [1]
  Plant response rating, Blackgrass: 10
blackgrass; [2]
  Plant response rating, Blackgrass: 10
galium
  Plant response rating (scale of 0 to 100 where 0 is no effect and 100 is complete control), Galium: 70
  Galium plant response rating: 70
galium; [1]
  Plant response rating, Galium: 80
galium; [2]
  Plant response rating, Galium: 70
wheat; [7]
  Plant response rating (scale of 0 to 100 where 0 is no effect and 100 is complete control), Wheat: 5
wheat; [8]
  Wheat plant response rating: 5
wheat; [3]
  Plant response rating, Wheat: 30
wheat; [6]
  Plant response rating, Wheat: 15
lambsquarters; Preemergence, 250 g ai/ha
  Plant response rating (scale of 0 to 100), Lambsquarters: 100
lambsquarters; [4]
  Lambsquarters plant response rating: 75
lambsquarters; [5]
  Lambsquarters plant response rating: 100
lambsquarters; 13 to 15 days
  Plant response rating, Lambsquarters: 100
crabgrass, large
  Plant response rating (scale of 0 to 100 where 0 is no effect and 100 is complete control), Crabgrass, Large: 5
  Crabgrass, Large plant response rating: 5
crabgrass, large; [1]
  Plant response rating, Crabgrass, Large: 35
crabgrass, large; [2]
  Plant response rating, Crabgrass, Large: 10
corn
  Plant response rating (scale of 0 to 100 where 0 is no effect and 100 is complete control), Corn: 10
  Corn plant response rating: 10
corn; [1]
  Plant response rating, Corn: 35
corn; [2]
  Plant response rating, Corn: 10
waterhemp; [7]
  Plant response rating (scale of 0 to 100 where 0 is no effect and 100 is complete control), Waterhemp: 60
waterhemp; [8]
  Waterhemp plant response rating: 60
waterhemp; [3]
  Plant response rating, Waterhemp: 95
waterhemp; [6]
  Plant response rating, Waterhemp: 75
ryegrass, Italian; [7]
  Plant response rating (scale of 0 to 100 where 0 is no effect and 100 is complete control), Ryegrass, Italian: 5
ryegrass, Italian; [8]
  Ryegrass, Italian plant response rating: 5
ryegrass, Italian; [3]
  Plant response rating, Ryegrass, Italian: 10
ryegrass, Italian; [6]
  Plant response rating, Ryegrass, Italian: 5
ragweed; [7]
  Plant response rating (scale of 0 to 100 where 0 is no effect and 100 is complete control), Ragweed: 25
ragweed; [8]
  Ragweed plant response rating: 25
ragweed; [3]
  Plant response rating, Ragweed: 85
ragweed; [6]
  Plant response rating, Ragweed: 75
soybean; [7]
  Plant response rating (scale of 0 to 100 where 0 is no effect and 100 is complete control), Soybean: 85
soybean; 62 g ai/ha, scale 0 to 100
  Soybean plant response rating: 75
soybean; [1]
  Plant response rating, Soybean: 95
soybean; [2]
  Plant response rating, Soybean: 95
barnyardgrass
  Plant response rating (scale of 0 to 100 where 0 is no effect and 100 is complete control), Barnyardgrass: 5
  Barnyardgrass plant response rating: 5
barnyardgrass; [1]
  Plant response rating, Barnyardgrass: 15
barnyardgrass; [2]
  Plant response rating, Barnyardgrass: 5
morningglory
  Plant response rating (scale of 0 to 100 where 0 is no effect and 100 is complete control), Morningglory: 75
  Morningglory plant response rating: 90
morningglory; [1]
  Plant response rating, Morningglory: 100
morningglory; [2]
  Plant response rating, Morningglory: 90
foxtail, giant
  Plant response rating (scale of 0 to 100 where 0 is no effect and 100 is complete control), Foxtail, Giant: 35
  Foxtail, Giant plant response rating: 40
foxtail, giant; [1]
  Plant response rating, Foxtail, Giant: 80
foxtail, giant; [2]
  Plant response rating, Foxtail, Giant: 50
